Tested on: human dermal fibroblasts
Experiment: UV-A radiation-induced mtDNA common deletion in human dermal fibroblasts (nested PCR)
Format: cell-based
Conditions: for Protection of fibroblasts against the UV-A radiation-induced generation of the common deletion (in words): overall finding of 3 experiments; for Prevalence of mtDNA deletion relative to untreated cells: representative experiment
From the text: Sunlight (Systems Dr. […]) irradiation device. […] The cells were then harvested by trypsinisation. […] Dermatol. […] (7293-7316); [NT] (13928-13905); [NT] (7901-7920); [NT] (13650-13631); [NT] (219-238); C2, [NT]

[1] = UV-A radiation + 0.25 μM carotenoid, after 1 week
[2] = UV-A radiation + 0.5 μM carotenoid, after 1 week
[3] = UV-A radiation + 1.0 μM carotenoid, after 1 week
[4] = UV-A radiation + 2.0 μM carotenoid, after 1 week
[5] = UV-A radiation + 3.0 μM carotenoid, after 1 week
[6] = all doses tested (0.25-3 μM), after 1 week

SMILES	Protection of fibroblasts against the UV-A radiation-induced generation of the common deletion (in words)	Prevalence of mtDNA deletion relative to untreated cells [1]	Prevalence of mtDNA deletion relative to untreated cells [2]	Prevalence of mtDNA deletion relative to untreated cells [3]	Prevalence of mtDNA deletion relative to untreated cells [4]	Prevalence of mtDNA deletion relative to untreated cells [5]	Effect on UV-A radiation-induced formation of the common deletion (in words) [6]	Effect on UV-A radiation-induced formation of the common deletion (in words) (at 0.5, 1 μM and 2 μM, after 1 week)	Prevalence of mtDNA deletion relative to untreated cells (UV-A radiation + 0.1 μM carotenoid, after 2 weeks)	Prevalence of mtDNA deletion relative to untreated cells (UV-A radiation + 0.25 μM carotenoid, after 2 weeks)	Prevalence of mtDNA deletion relative to untreated cells (UV-A radiation + 0.5 μM carotenoid, after 2 weeks)	Prevalence of mtDNA deletion relative to untreated cells (UV-A radiation + 1.0 μM carotenoid, after 2 weeks)	Prevalence of mtDNA deletion relative to untreated cells (UV-A radiation + 2.0 μM carotenoid, after 2 weeks)	Prevalence of mtDNA deletion relative to untreated cells (UV-A radiation + 3.0 μM carotenoid, after 2 weeks)	Effect on UV-A radiation-induced induction of the common deletion (in words) (all concentrations tested, after 2 weeks)
CC1=C(/C=C/C(C)=C/C=C/C(C)=C/C=C/C=C(C)/C=C/C=C(C)/C=C/C2=C(C)C[C@@H](O)CC2(C)C)C(C)(C)C[C@H](O)C1 [Zeaxanthin, zeaxanthin, reference compound]	no effect	–	–	–	–	–	–	–	–	–	–	–	–	–	–
CC1=C[C@H](O)CC(C)(C)[C@H]1/C=C/C(C)=C/C=C/C(C)=C/C=C/C=C(C)/C=C/C=C(C)/C=C/C1=C(C)C[C@@H](O)CC1(C)C [lutein]	found to protect	0.98	0.27	0.71	0.37	0.59	completely prevented	–	–	–	–	–	–	–	–
CC(C)=CCC/C(C)=C/C=C/C(C)=C/C=C/C(C)=C/C=C/C=C(C)/C=C/C=C(C)/C=C/C=C(\C)CCC=C(C)C [lycopene]	consistently found to protect	2.90	1.22	1.53	1.53	2.52	inhibits	Complete protection	–	–	–	–	–	–	–
CC1=C(/C=C/C(C)=C/C=C/C(C)=C/C=C/C=C(C)/C=C/C=C(C)/C=C/C2=C(C)C[C@@H](O)CC2(C)C)C(C)(C)CCC1 [β-cryptoxanthin]	–	–	–	–	–	–	–	–	0.80	0.64	0.25	0.62	0.25	1.03	abrogated

Source: patent US20080199413A1, “Novel Use of Organic Compounds” (priority 2005, published 2008)
